Counter-ions that a name gives are not always drawn.
Test system: IFN-β secretion by THP-1 cells
Test: Activation of IFN-β secretion by THP-1 cells (Human IFN-beta ELISA)
Type: cell-based
Details: Homo sapiens, THP-1, 24 h, THP-1 cells, 24 hours, IFN-β ELISA
Method: THP-1 cell, a human monocytic leukemia cell line, has the STING phenotype of HAQ type, i.e., R71H-G230A-R293Q. This assay used the Human IFN-beta DuoSet ELISA Kit from R & D (R & D, Cat #DY814-05) and the DuoSet ELISA Ancillary Reagent Kit 2 (R & D, Cat #DY008) to evaluate the activation of IFN-β secretion from THP-1 cells by representative compounds of the invention.
In thawing the THP-1 cells (ATCC #TIB-202), a cell freezing tube was quickly shaken in a water bath at 37° C. to thaw the cells within 1 min. The thawed cell suspension was taken and evenly mixed with an RPMI1640 medium (Hyclone, product #SH30027.01) containing 10% FBS (Life Technology, Cat #10099-141), centrifuged for 5 min at 1000 rpm, and the supernatant was discarded. The cell pellet was resuspended in 5 mL of the complete medium (RPMI 1640 medium containing 10% FBS), placed into a cell culture flask with a bottom area of 25 cm^2, and incubated in a cell incubator at 37° C., 5% CO2 and 95% humidity. When the cell confluence reached about 80%, the cells were passaged. All the cells in the culture flask were transferred to a 15 mL centrifuge tube, centrifuged for 5 min at 1000 rpm, and the supernatant was discarded. 5 mL of fresh complete medium was added to re-suspend the cell pellet, 1 mL of which was taken to place in a cell culture flask with a bottom area of 25 cm^2, supplemented with 4 mL of fresh complete medium for further incubation. When the cell confluence reached about 80% again, plating was conducted following the procedure of cell passage, retaining 1/5 cell suspension for further inculation and remaining 4/5 of the cell suspension in a 15 mL centrifuge tube. The cell suspension was centrifuged to discard the old culture medium, washed once using RPMI1640 culture medium (serum-free), and centrifuged to remove the supernatant. The cells were then re-suspended in RPMI1640 culture medium (serum-free). Cell viability was then detected by Trypan blue exclusion test and to be used for plating when the cell viability was confirmed to be more than 95%. A cell suspension with a density of 1.1×10^6 viable cells/mL was prepared using RPMI1640 culture medium (serum-free), and 180 μL of the cell suspension was added to a 96-well cell culture plate (NUNC Company, Cat #167008) so that the cell density in the plate was 2×10^5 viable cells/well.
(§1) A 10 mM stock solution of the compounds in DMSO was first serially diluted at 3.16-fold with DMSO (Sigma, Cat #D2650) to the 5th concentration, and the 6th concentration was set as DMSO control (compound-free). Then, the DMSO solutions containing different concentrations of the compounds were diluted at 10-fold with PBS so that the DMSO content in each compound solution of various concentrations was 10%. Finally, 20 μL of each of such solutions was added into corresponding cell culture plate to provide an initial compound concentration of 100 μM, with the dilution fold of adjacent concentrations being 3.16 and the DMSO content in the cell culture plate being 1%. The cell plate was placed in a cell incubator for further 24 hours.
ELISA detection was conducted referring to the instructions from R & D System, Cat #DY814-05.
ELISA plate coating: PBS (R & D System Cat #DY006) was used to dilute the capture antibody (mouse anti-human IFN-β capture antibody PART #844508) to provide the working concentration, and 100 μL capture antibody working solution was added to a 96-well ELISA plate which was then sealed and incubated overnight at room temperature. Upon discarding the capture antibody working solution, the cell plate was washed 3 times with a washing buffer (0.05% Tween-20 in PBS, pH 7.2-7.4, R & D System Cat #WA126) at 400 μL of the washing buffer per well, and the washing buffer was thoroughly removed after each washing, with the final washing to be completely removed of the wash buffer by inverting and claping the plate to a clean piece of paper. […]

**Q.** Nc1nc2c(ncn2[C@@H]2O[C@@H]3CO[P@@](=O)(S)OC4C(F)[C@H](n5cnc6c(N)nc(Cl)nc65)O[C@@H]4CO[P@](=O)(S)OC2C3O)c(=O)[nH]1 (stereo partly drawn) [Example 8, (2′,3′)-cyclo-(Sp,Rp)-[2′-O-phosphorothioate-diester-guanosine]-[3′-O-phosphorothioate-diester-2-chloro-2′-deoxy-2′-fluoro-beta-adenosine] diammonium salt] was tested. Which EC50 did it give?
**A.** 10.1 to 100 µM

**Q.** With Nc1nc2c(ncn2[C@@H]2O[C@@H]3CO[P@](=O)(S)OC4C(F)[C@H](n5cnc6c(N)nc(Cl)nc65)O[C@@H]4CO[P@](=O)(S)OC2C3O)c(=O)[nH]1 (stereo partly drawn) [Example 9, (2′,3′)-cyclo-(Sp,Sp)-[2′-O-phosphorothioate-diester-guanosine]-[3′-O-phosphorothioate-diester-2-chloro-2′-deoxy-2′-fluoro-beta-adenosine] diammonium salt] as the compound, how does the EC50 read?
**A.** 10.1 to 100 µM

**Q.** Which EC50 does the source give for Nc1nc2c(ncn2[C@@H]2O[C@@H]3CO[P@@](=O)(S)OC4C[C@H](n5cnc6c(N)nc(Cl)nc65)O[C@@H]4CO[P@](=O)(S)OC2C3O)c(=O)[nH]1 (stereo partly shown) [Example 11, (2′,3′)-cyclo-(Sp,Rp)-[2′-O-phosphorothioate-diester-guanosine]-[3′-O-phosphorothioate-diester-2-chloro-2′-deoxy-adenosine] diammonium salt] here?
**A.** 10.1 to 100 µM

**Q.** Nc1nc(Cl)nc2c1ncn2[C@@H]1O[C@@H]2CO[P@@](=O)(S)OC3[C@@H](CO[P@@](=O)(S)O[C@@H]2C1F)O[C@@H](n1cnc2c(N)ncnc21)[C@H]3F (stereo partly drawn) [Example 18, (3′,3′)-cyclo-(Rp,Rp)-[3′-O-phosphorothioate-diester-2′-deoxy-2′-fluoroadenosine]-[3′-O-phosphorothioate-diester-2-chloro-2′-deoxy-2′-fluoro-beta-adenosine]-0.5-ammonium-1.5-1,8-diazabicycloundec-7-ene-salt] was tested. Which EC50 did it give?
**A.** 10.1 to 100 µM

**Q.** Nc1ncnc2c1ncn2[C@@H]1O[C@@H]2CO[P@@](=O)(S)O[C@@H]3C[C@H](n4cnc5c(N)nc(Cl)nc54)O[C@@H]3CO[P@@](=O)(S)OC2[C@@H]1F (stereo partly shown) [Example 19, (3′,3′)-cyclo-(Rp,Rp)-[3′-O-phosphorothioate-diester-2′-deoxy-2′-fluoroadenosine]-[3′-O-phosphorothioate-diester-2-chloro-2′-deoxyadenosine] 0.5-1,8-diazabicycloundec-7-ene-salt] was tested. Which EC50 did it give?
**A.** 10.1 to 100 µM

**Q.** Which EC50 does the source give for Nc1nc2c(ncn2[C@@H]2O[C@@H]3CO[P@@](=O)(S)OC4C[C@H](n5cnc6c(N)nc(Cl)nc65)O[C@@H]4CO[P@@](=O)(S)OC3C2F)c(=O)[nH]1 (stereo partly shown) [Example 21, (3′,3′)-cyclo-(Rp,Rp)-[3′-O-phosphorothioate-diester-2′-deoxy-2′-fluoroguanosine]-[3′-O-phosphorothioate-diester-2-chloro-2′-deoxyadenosine] diammonium salt] here?
**A.** 10.1 to 100 µM

**Q.** Which EC50 does the source give for CNc1nc(N)c2ncn([C@@H]3O[C@@H]4CO[P@@](=O)(S)O[C@H]5C(O)[C@@H](CO[P@@](=O)(S)O[C@@H]4C3F)O[C@H]5n3cnc4c(=O)[nH]c(N)nc43)c2n1 (stereo partly drawn) [Example 26, (2′,3′)-cyclo-(Rp,Rp)-[2′-O-phosphorothioate-diester-guanosine]-[3′-O-phosphorothioate-diester-2-methylamino-2′-deoxy-2′-fluoro-beta-adenosine] diammonium salt] here?
**A.** 1 to 10 µM

Same assay, conditions: THP-1 cells, 24 hours, IFN-β ELISA

**Q.** Nc1nc2c(ncn2[C@@H]2O[C@@H]3COP(=O)(O)O[C@H]4[C@@H](O)[C@H](n5cnc6c(N)ncnc65)O[C@@H]4COP(=O)(O)O[C@@H]2[C@@H]3O)c(=O)[nH]1 [2′,3′-cGAMP, cGAMP, reference compound] was tested. Which EC50 did it give?
**A.** 10.1 to 100 µM

Same assay, conditions: THP-1 cells, 24 hours, IFN-β ELISA; diammonium salt

**Q.** How did the EC50 turn out when Nc1nc2c(ncn2[C@@H]2O[C@@H]3CO[P@@](=O)(S)OC4C(F)[C@H](n5cnc6c(N)nc(Cl)nc65)O[C@@H]4CO[P@](=O)(S)OC3C2O)c(=O)[nH]1 (stereo partly drawn) [Example 15, (3′,3′)-cyclo-(Sp,Rp)-[3′-O-phosphorothioate-diester-guanosine]-[3′-O-phosphorothioate-diester-2-chloro-2′-deoxy-2′-fluoro-beta-adenosine] diammonium salt] was run?
**A.** 10.1 to 100 µM

Test system: CT26 cells
Test: Inhibition of proliferation of CT26 cells (CellTiter-Glo)
Type: cell-based, mouse
Details: Mus musculus, 120 hours, CellTiter-Glo
Method: CT26 cell is a mouse colorectal cancer cell line. This assay used the CellTiter-Glo Luminescence Cell Vitality Assay kit from Promega to evaluate the inhibitory activity of the compounds on the proliferation of CT26 cells.
In thawing the CT26 cells (ATCC #CRL-2638), a cell freezing tube was quickly shaken in a water bath at 37° C. to thaw the cells within 1 min. The thawed cell suspension was taken and evenly mixed with DMEM medium (GE, Cat #SH30243.01) containing 10% FBS (GIBCO, Cat #10099-141), centrifuged for 5 min at 1000 rpm, and the supernatant was discarded. The cell pellet was resuspended in 5 mL of the complete medium (DMEM medium containing 10% FBS), placed into a cell culture flask with a bottom area of 25 cm^2, and incubated in a cell incubator at 37° C., 5% CO2 and 95% humidity. When the cell confluence reached 70%˜80%, the cells were passaged. All the cells in the culture flask were transferred to a 15 mL centrifuge tube, centrifuged for 5 min at 1000 rpm, and the supernatant was discarded. 5 mL of fresh complete medium was added to re-suspend the cell pellet, 1 mL of which was taken to place in a cell culture flask with a bottom area of 25 cm^2, supplemented with 4 mL of fresh complete medium for further incubation. When the cell confluence reached 70%-80% again, plating was conducted following the procedure of cell passage, retaining 1/5 cell suspension for further inculation and remaining 4/5 of the cell suspension in a 15 mL centrifuge tube.
The cell suspension was centrifuged to discard the old culture medium, washed once using DMEM medium (serum-free), and centrifuged to remove the supernatant. The cells were then re-suspended in DMEM medium (serum-free). Cell viability was then detected by Trypan blue exclusion test and to be used for plating when the cell viability was confirmed to be more than 95%. A cell suspension with a density of 1.1×10^4 viable cells/mL was prepared using DMEM medium (serum-free), and 90 μL of the cell suspension was added to a 96-well 96-well transparent flat-bottomed black-walled cell culture plate (Corning, Cat #3603) so that the cell density in the plate was 1000 viable cells/well. A control group containing no cells, no compound, and complete medium only (i.e., a culture medium control), and a control group containing no compound but cells (i.e., a cell control) were set. The cell plates were placed in a cell incubator overnight.
as §1, with “9th” for “5th”, “10th” for “6th”, “PBS (Solarbio, Cat #P1020)” for “PBS”, “10” for “20”, “120” for “24”
After 120 hours, the CellTiter-Glo reagent (Promega, Cat #G7572) was thawed and the plates were equilibrated at room temperature for 30 min. 100 uL of CellTiter-Glo was added to each well of the plate, and the cells were lysed thoroughly by shaking on an orbital shaker for 5 min. The plates were placed at room temperature for 20 min to stabilize the luminescence signal, and the luminescence value of each well was scanned at full wavelength with a multifunctional microplate reader (Molecular Devices, Spectramax M3). […]

**Q.** How did the IC50 turn out when Nc1nc(Cl)nc2c1ncn2[C@H]1C[C@H](O)[C@@H](CO)O1 [Cladribine, cladribine, reference compound] was run?
**A.** < 1 µM

**Q.** Which IC50 does the source give for Nc1nc(Cl)nc2c1ncn2[C@@H]1O[C@H](CO)[C@@H](O)[C@@H]1F [Clofarabine—, clofarabine, reference compound] here?
**A.** < 1 µM

**Q.** Nc1nc(Cl)nc2c1ncn2[C@@H]1O[C@@H]2CO[P@@](=O)(S)OC3[C@@H](F)[C@H](n4cnc5c(N)nc(Cl)nc54)O[C@@H]3CO[P@@](=O)(S)O[C@@H]2C1F (stereo partly drawn) [Example 1, (3′,3′)-cyclo-(Rp,Rp)-bis-[3′-O-phosphorothioate-diester-2-chloro-2′-deoxy-2′-fluoro-beta-adenosine]1.5-ammonium-0.5-1,8-diazabicycloundec-7-ene-salt] was tested. Which IC50 did it give?
**A.** 1 to 10 µM

**Q.** How did the IC50 turn out when Nc1nc(Cl)nc2c1ncn2[C@H]1CC2O[P@](=O)(S)OC[C@H]3O[C@@H](n4cnc5c(N)nc(Cl)nc54)CC3O[P@](=O)(S)OC[C@H]2O1 (stereo partly shown) [Example 2, (3′,3′)-cyclo-(Rp,Rp)-bis-[3′-O-phosphorothioate-diester-2-chloro-2′-deoxyadenosine]] was run?
**A.** 1 to 10 µM

— patent publication US20240059729A1, “MULTIFUNCTIONAL CYCLIC DINUCLEOTIDE AND USE THEREOF” (TYLIGAND BIOSCIENCE (SHANGHAI) LIMITED, priority 2020, published 2024)
